Laboratory results reported in PMC8776063, “Aurora Kinase A Is Involved in Controlling the Localization of Aquaporin-2 in Renal Principal Cells” (International Journal of Molecular Sciences, 2022).
Like-named read-outs stand apart in the source and are kept apart here.

Key:
[1] = molecular target: T1, TTK (Homo sapiens, UniProt P33981); experiment: Thermal shift assay; type: binding; settings: read-out: ΔTm TTK
T1 construct: purchased in-house thermal shift (DSF) kinase panel (SGC Frankfurt); Promega NanoBRET for AURKA/B/C
T1 sequence (P33981 519-808): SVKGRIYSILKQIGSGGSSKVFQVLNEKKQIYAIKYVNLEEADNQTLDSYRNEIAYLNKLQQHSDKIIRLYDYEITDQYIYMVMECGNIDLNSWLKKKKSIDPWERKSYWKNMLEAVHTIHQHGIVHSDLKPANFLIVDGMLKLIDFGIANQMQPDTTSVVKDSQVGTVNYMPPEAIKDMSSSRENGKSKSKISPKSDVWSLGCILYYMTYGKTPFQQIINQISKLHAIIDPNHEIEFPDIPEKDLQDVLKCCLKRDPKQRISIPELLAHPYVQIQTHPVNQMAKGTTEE

[2] = molecular target: T2, FGFR2 (Homo sapiens, UniProt P21802); experiment: Thermal shift assay; type: binding; settings: read-out: ΔTm FGFR2
T2 construct: purchased in-house thermal shift (DSF) kinase panel (SGC Frankfurt); Promega NanoBRET for AURKA/B/C

[3] = test system: primary IMCD cells; experiment: F-actin stress fiber staining (phalloidin); type: cell-based, rat; settings: compound 20 µM, 1 h
[4] = test system: CFL1 phosphorylation in MCD4 cells; experiment: CFL1 phosphorylation, Western blotting; type: cell-based, mouse; settings: compound 30 µM, 1 h; for CFL1 phosphorylation: absence and presence of forskolin; for CFL1 phosphorylation in combination with forskolin: forskolin 30 µM, 30 min
[5] = molecular target: T3, BRAF (Homo sapiens, UniProt P15056); experiment: Thermal shift assay; type: binding; settings: read-out: ΔTm BRAF
T3 construct: purchased in-house thermal shift (DSF) kinase panel (SGC Frankfurt); Promega NanoBRET for AURKA/B/C

[6] = molecular target: T4, CDK2 (Homo sapiens, UniProt P24941); experiment: Thermal shift assay; type: binding; settings: read-out: ΔTm CDK2
T4 construct: purchased in-house thermal shift (DSF) kinase panel (SGC Frankfurt); Promega NanoBRET for AURKA/B/C

[7] = molecular target: T5, CAMKK2 (Homo sapiens, UniProt Q96RR4); experiment: Thermal shift assay; type: binding; settings: read-out: ΔTm CAMKK2
T5 construct: purchased in-house thermal shift (DSF) kinase panel (SGC Frankfurt); Promega NanoBRET for AURKA/B/C

[8] = molecular target: T6, PAK1 (Homo sapiens, UniProt Q13153); experiment: Thermal shift assay; type: binding; settings: read-out: ΔTm PAK1
T6 construct: purchased in-house thermal shift (DSF) kinase panel (SGC Frankfurt); Promega NanoBRET for AURKA/B/C

[9] = molecular target: T7, STK3 (Homo sapiens, UniProt Q13188); experiment: Thermal shift assay; type: binding; settings: read-out: ΔTm STK3
T7 construct: purchased in-house thermal shift (DSF) kinase panel (SGC Frankfurt); Promega NanoBRET for AURKA/B/C
T7 sequence (Q13188 16-313): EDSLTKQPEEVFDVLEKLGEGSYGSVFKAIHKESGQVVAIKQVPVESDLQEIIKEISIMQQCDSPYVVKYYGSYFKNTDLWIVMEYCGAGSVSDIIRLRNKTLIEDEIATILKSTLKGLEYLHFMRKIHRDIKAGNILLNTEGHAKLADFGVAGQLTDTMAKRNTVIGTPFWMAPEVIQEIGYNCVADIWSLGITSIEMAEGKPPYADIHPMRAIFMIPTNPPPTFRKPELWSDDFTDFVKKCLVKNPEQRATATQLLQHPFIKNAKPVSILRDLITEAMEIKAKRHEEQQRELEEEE

[10] = molecular target: T8, STK17A (Homo sapiens, UniProt Q9UEE5); experiment: Thermal shift assay; type: binding; settings: read-out: ΔTm STK17A
T8 construct: purchased in-house thermal shift (DSF) kinase panel (SGC Frankfurt); Promega NanoBRET for AURKA/B/C
T8 sequence (Q9UEE5 61-321): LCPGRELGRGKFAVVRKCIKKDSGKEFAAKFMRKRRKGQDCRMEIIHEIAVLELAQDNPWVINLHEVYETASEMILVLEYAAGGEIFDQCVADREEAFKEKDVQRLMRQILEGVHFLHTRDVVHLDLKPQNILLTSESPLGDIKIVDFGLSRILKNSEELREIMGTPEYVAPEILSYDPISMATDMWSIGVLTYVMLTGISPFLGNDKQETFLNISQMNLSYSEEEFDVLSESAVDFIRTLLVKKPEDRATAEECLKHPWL

[11] = molecular target: T9, STK39 (Homo sapiens, UniProt Q9UEW8); experiment: Thermal shift assay; type: binding; settings: read-out: ΔTm STK39
T9 construct: purchased in-house thermal shift (DSF) kinase panel (SGC Frankfurt); Promega NanoBRET for AURKA/B/C

[12] = test system: MCD4 cells; experiment: AQP2 redistribution, immunofluorescence microscopy; settings: forskolin 30 µM, 30 min; for inhibition of the forskolin-induced redistribution of AQP2 to the plasma membrane: compound 30 µM, 1 h (Aurora-A inhibitor I 1-30 µM)
[13] = molecular target: T10, MAPK9 (Homo sapiens, UniProt P45984); experiment: Thermal shift assay; type: binding; settings: read-out: ΔTm MAPK9
T10 construct: purchased in-house thermal shift (DSF) kinase panel (SGC Frankfurt); Promega NanoBRET for AURKA/B/C

[14] = molecular target: T11, MAPK1 (Homo sapiens, UniProt P28482); experiment: Thermal shift assay; type: binding; settings: compound 10 µM; n = 3
T11 construct: purchased in-house thermal shift (DSF) kinase panel (SGC Frankfurt); Promega NanoBRET for AURKA/B/C

[15] = test system: MCD4 cells; experiment: MTS assay (cell viability); type: cell-based, mouse; settings: 30 µM, 10 µM or 1 µM, 1 h; compared to untreated cells
[16] = molecular target: T12, AKT3 (Homo sapiens, UniProt Q9Y243); experiment: Thermal shift assay; type: binding; settings: read-out: ΔTm AKT3
T12 construct: purchased in-house thermal shift (DSF) kinase panel (SGC Frankfurt); Promega NanoBRET for AURKA/B/C

[17] = molecular target: T13, CLK1 (Homo sapiens, UniProt P49759); experiment: Thermal shift assay; type: binding; settings: read-out: ΔTm CLK1
T13 construct: purchased in-house thermal shift (DSF) kinase panel (SGC Frankfurt); Promega NanoBRET for AURKA/B/C

[18] = molecular target: T14, PHKG2 (Homo sapiens, UniProt P15735); experiment: Thermal shift assay; type: binding; settings: read-out: ΔTm PHKG2
T14 construct: purchased in-house thermal shift (DSF) kinase panel (SGC Frankfurt); Promega NanoBRET for AURKA/B/C
T14 sequence (P15735 6-293): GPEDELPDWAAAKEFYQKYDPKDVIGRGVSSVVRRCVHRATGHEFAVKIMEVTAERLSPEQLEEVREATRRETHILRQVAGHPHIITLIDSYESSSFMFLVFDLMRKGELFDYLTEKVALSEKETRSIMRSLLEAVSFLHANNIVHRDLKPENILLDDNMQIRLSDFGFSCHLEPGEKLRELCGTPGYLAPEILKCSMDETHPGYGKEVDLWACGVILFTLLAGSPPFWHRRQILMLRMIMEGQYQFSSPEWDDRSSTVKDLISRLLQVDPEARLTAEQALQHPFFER

T12 sequence (Q9Y243 148-479): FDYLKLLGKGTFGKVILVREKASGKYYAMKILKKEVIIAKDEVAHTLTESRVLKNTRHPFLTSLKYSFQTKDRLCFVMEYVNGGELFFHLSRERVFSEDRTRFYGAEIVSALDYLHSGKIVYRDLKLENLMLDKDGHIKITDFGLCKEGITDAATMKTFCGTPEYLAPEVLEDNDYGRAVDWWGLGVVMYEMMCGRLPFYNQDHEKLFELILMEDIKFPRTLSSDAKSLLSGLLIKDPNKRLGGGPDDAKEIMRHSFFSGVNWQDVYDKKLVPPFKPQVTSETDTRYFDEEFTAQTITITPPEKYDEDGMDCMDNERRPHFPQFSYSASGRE
T13 sequence (P49759 148-484): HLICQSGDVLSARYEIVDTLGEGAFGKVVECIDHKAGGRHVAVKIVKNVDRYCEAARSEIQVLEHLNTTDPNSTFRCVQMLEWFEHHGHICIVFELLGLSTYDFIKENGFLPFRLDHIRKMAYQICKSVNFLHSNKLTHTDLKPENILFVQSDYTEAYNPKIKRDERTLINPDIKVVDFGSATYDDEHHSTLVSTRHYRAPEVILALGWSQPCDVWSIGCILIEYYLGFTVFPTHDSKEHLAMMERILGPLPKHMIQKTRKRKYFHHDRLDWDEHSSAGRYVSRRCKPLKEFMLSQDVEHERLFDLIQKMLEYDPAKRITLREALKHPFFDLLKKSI
T3 sequence (P15056 448-723): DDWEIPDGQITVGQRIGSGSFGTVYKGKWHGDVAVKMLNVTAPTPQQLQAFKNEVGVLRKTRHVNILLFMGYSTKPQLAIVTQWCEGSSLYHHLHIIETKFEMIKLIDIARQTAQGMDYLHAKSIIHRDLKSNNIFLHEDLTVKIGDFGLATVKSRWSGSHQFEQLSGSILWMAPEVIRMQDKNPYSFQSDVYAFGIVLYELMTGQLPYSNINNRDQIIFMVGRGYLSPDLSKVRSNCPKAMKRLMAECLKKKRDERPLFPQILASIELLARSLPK
T2 sequence (P21802 458-768): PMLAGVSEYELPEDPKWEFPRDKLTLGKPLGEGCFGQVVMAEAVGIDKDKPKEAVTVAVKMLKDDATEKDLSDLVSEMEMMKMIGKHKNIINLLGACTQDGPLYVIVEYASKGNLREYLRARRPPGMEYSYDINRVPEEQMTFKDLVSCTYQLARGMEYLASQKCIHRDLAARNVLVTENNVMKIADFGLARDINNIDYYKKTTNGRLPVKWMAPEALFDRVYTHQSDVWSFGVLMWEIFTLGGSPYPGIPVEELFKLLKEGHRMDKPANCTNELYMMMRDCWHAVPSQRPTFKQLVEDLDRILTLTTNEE
T11 sequence (P28482 whole entry): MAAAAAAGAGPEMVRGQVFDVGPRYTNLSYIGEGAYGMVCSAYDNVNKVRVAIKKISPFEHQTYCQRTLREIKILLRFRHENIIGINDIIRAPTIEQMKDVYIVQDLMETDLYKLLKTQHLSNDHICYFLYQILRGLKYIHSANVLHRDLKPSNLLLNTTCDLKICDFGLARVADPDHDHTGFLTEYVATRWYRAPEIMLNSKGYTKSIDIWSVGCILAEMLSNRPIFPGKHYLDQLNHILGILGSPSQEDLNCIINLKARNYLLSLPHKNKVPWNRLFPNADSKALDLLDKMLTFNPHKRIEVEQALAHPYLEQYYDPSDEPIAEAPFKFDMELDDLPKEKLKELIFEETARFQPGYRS
T5 sequence (Q96RR4 161-449): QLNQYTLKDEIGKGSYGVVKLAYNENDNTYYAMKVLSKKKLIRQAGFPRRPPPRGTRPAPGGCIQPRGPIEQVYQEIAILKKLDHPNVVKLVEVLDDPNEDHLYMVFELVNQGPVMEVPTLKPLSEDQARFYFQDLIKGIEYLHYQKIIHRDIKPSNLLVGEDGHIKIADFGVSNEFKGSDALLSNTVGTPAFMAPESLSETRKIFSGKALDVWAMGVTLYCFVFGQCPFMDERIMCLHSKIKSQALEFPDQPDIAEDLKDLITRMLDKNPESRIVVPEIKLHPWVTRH
T10 sequence (P45984 whole entry): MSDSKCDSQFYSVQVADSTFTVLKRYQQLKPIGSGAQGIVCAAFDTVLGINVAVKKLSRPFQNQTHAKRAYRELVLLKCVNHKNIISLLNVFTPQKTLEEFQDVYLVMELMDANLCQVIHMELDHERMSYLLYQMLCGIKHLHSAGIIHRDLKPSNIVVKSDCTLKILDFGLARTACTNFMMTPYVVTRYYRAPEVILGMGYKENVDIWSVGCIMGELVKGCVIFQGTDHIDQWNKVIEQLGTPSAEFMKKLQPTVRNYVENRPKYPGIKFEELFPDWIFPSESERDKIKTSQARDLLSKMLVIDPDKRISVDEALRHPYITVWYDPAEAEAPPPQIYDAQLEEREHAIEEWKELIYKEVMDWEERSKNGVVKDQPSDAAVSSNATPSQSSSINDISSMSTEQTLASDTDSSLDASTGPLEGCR
T6 sequence (Q13153 249-545): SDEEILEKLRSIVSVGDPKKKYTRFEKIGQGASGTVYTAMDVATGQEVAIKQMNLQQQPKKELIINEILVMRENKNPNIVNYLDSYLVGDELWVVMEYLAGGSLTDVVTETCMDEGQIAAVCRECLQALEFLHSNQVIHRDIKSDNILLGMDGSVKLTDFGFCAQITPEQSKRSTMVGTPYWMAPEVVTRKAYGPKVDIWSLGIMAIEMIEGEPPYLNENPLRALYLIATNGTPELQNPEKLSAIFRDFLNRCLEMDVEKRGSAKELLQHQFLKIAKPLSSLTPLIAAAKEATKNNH

SMILES	effect on actin stress fibers [3]	CFL1 phosphorylation [4]	CFL1 phosphorylation in combination with forskolin [4]	inhibition of the forskolin-induced redistribution of AQP2 to the plasma membrane [12]	ΔTm at 10 µM [14] [°C]	viability of MCD4 cells [15]	ΔTm at 10 µM ([1]; compound 10 µM, n = 3) [°C]	ΔTm at 10 µM ([2]; compound 10 µM, n = 3) [°C]	ΔTm at 10 µM ([5]; compound 10 µM, n = 3) [°C]	ΔTm at 10 µM ([6]; compound 10 µM, n = 3) [°C]	ΔTm at 10 µM ([7]; compound 10 µM, n = 3) [°C]	ΔTm at 10 µM ([8]; compound 10 µM, n = 3) [°C]	ΔTm at 10 µM ([9]; compound 10 µM, n = 3) [°C]	ΔTm at 10 µM ([10]; compound 10 µM, n = 3) [°C]	ΔTm at 10 µM ([11]; compound 10 µM, n = 3) [°C]	ΔTm at 10 µM ([13]; compound 10 µM, n = 3) [°C]	ΔTm at 10 µM ([16]; compound 10 µM, n = 3) [°C]	ΔTm at 10 µM ([17]; compound 10 µM, n = 3) [°C]	ΔTm at 10 µM ([18]; compound 10 µM, n = 3) [°C]	other results
CCN1CCN(C(=O)Cc2ccc(Nc3ncc(F)c(Nc4ccc(C(=O)Nc5ccccc5Cl)cc4)n3)cc2)CC1 [Aurora-A inhibitor I, reference compound]	depolymerization of actin stress fibers	significantly decreased	Significant additive effects	inhibits	0.4	did not elicit any significant effects	–	–	–	–	–	–	–	–	–	–	–	–	–	ΔTm at 10 µM [1]: 1.9 °C; ΔTm at 10 µM [2]: 2.5 °C; ΔTm at 10 µM [5]: 1.1 °C; ΔTm at 10 µM [6]: 1.4 °C; ΔTm at 10 µM [7]: 2.3 °C; ΔTm at 10 µM [8]: 0.5 °C; ΔTm at 10 µM [9]: 2.6 °C; ΔTm at 10 µM [10]: 1.9 °C; ΔTm at 10 µM [11]: 2.4 °C; effective concentration for inhibition of AQP2 redistribution ([12]; 1, 10 or 30 µM, 1 h): greater than 1 µM; ΔTm at 10 µM [13]: 2.9 °C; ΔTm at 10 µM [16]: 0.2 °C; ΔTm at 10 µM [17]: 1.5 °C; ΔTm at 10 µM [18]: 0.7 °C
CCN1CCN(C(=O)Cc2ccc(Nc3ncc(F)c(Nc4ccc(C(=O)O)cc4)n3)cc2)CC1 [ERJ2-12]	resembled those of the control cells	no effect	–	not different from that in cells treated with the compound solvent, DMSO	-0.1	does not affect	0.6	2.9	0.7	0.4	1.8	0.2	0.1	0.4	0.2	3	-0.1	0.5	0.2	–
NC(=O)Cc1ccc(Nc2ncc(F)c(Nc3ccc(C(=O)Nc4ccccc4Cl)cc3)n2)cc1 [ERJ2-06]	Comparable effects	–	Significant additive effects	–	0.1	did not elicit any significant effects	2.4	2.4	0.5	4.1	2.2	0.7	3.1	2.2	2.4	2.9	0.1	1.7	0.9	–
O=C(Cc1ccc(Nc2ncc(F)c(Nc3ccc(C(=O)Nc4ccccc4Cl)cc3)n2)cc1)NCCN1CCOCC1 [ERJ2-04]	Comparable effects	–	Significant additive effects	not different from that in cells treated with the compound solvent, DMSO	0.3	reduced by 10 or 30 µM	1.8	1.5	0.8	0.7	1.3	0.6	1.3	1.4	2.1	1.9	-0.1	0.4	0.3	–
CCN1CCN(C(=O)Cc2ccc(Nc3ncc(F)c(Nc4ccc(C(=O)Nc5ccccc5)cc4)n3)cc2)CC1 [ERJ2-11]	promoted or maintained the formation of actin stress fibers	–	Significant additive effects	–	-0.1	reduced by 10 or 30 µM	2.2	2.9	1.8	2.6	3.1	0.5	2	1.8	2.6	2.8	0.1	1.5	0.8	–
